Source: patent publication US12491252B2, “Substituted 3-amino-5-phenylbenzamide compounds as covalent inhibitors of enhancer zeste homolog 2 (EZH2) and proteolysis-targeting chimeric derivatives thereof (PROTACs) that induce degradation of EZH2” (Northwestern University, priority 2021, dated 2025)

Legend:
[1] = Pharmacokinetics in mice, IP cassette dosing, plasma LC/MS/MS; type: in vivo, C57Bl/6 mouse; details: mouse, C57Bl/6 mice, 4 mg/kg IP, cassette format
Method: FIG. 35. Pharmacokinetics of indicated compounds. Compounds were administered to C57Bl/6 mouse mice at 4 mg/kg using intraperitoneal (IP) injection in cassette format. Plasma was collected at the indicated time points and analyzed by LC/MS/MS using standard methods.
For assessing pharmacokinetics, compounds were administered to C57Bl/6 mouse mice at 4 mg/kg using intraperitoneal (IP) injection in cassette format. Plasma was collected at the indicated time points and analyzed by LC/MS/MS using standard methods.

H3K27me3 = test: Western blot of H3K27me3 levels in C4-2B cells; type: cell-based; details: FIG. 14, 10 μM for 6 days
SUZ12 [2] = test: Western blot of SUZ12 in C4-2B cells; type: cell-based; details: FIG. 14, 10 μM for 6 days
EZH2 [3] = biological target: T1, EZH2 (Homo sapiens, UniProt Q15910); test: Western blot of EZH2 protein in C4-2B cells; details: for Degradation of EZH2: FIG. 14, 10 μM for 6 days
C4-2B cells [4] = test: Live imaging cell proliferation of C4-2B cells; type: cell-based; details: FIG. 20A, monitored over 168 hours
Text: FIG. 20A-20B. (FIG. 20A) Live imaging cell proliferation of C4-2B cells. […] DMSO is set as the negative control. […] (FIG. 20B) Colony assays using C4-2B cells after treatment with the indicated compounds for 7 days.

C4-2B cells [5] = test: Colony assay using C4-2B cells; type: cell-based; details: FIG. 20B, treatment for 7 days
Method: FIG. 20A-20B. (FIG. 20A) Live imaging cell proliferation of C4-2B cells. Cells were treated with indicated compounds and monitored over 168 hours for proliferation by phase object confluence. DMSO is set as the negative control. […] (FIG. 20B) Colony assays using C4-2B cells after treatment with the indicated compounds for 7 days.

C4-2B cells [6] = test: Imaging of C4-2B cells (cell density); type: cell-based; details: FIG. 21, 12 days' treatment
Text: FIG. 21. Imaging of C4-2B cells after 12 days' treatment with the indicated compounds.

LNCaP cells [7] = test: Colony assay using LnCaP cells; type: cell-based; details: FIG. 17B, treatment for 7 days
Method: FIG. 17A-17B. (FIG. 17A) Live imaging cell proliferation of LNCaP cells. Cells were treated with indicated compounds and monitored over 168 hours for proliferation by phase object confluence. DMSO is set as the negative control. […] (FIG. 17B) Colony assays using LnCaP cells after treatment with the indicated compounds for 7 days.

LNCaP cells [8] = test: Live imaging cell proliferation of LNCaP cells; type: cell-based; details: FIG. 17A, monitored over 168 hours
Text: FIG. 17A-17B. (FIG. 17A) Live imaging cell proliferation of LNCaP cells. […] DMSO is set as the negative control. […] (FIG. 17B) Colony assays using LnCaP cells after treatment with the indicated compounds for 7 days.

EZH2 [9] = biological target: T1, EZH2; test: Western blot of EZH2 protein in PC3 cells; details: FIG. 26, 6 days treatment
Text: (Upper right western blot) Western blot analysis of EZH2 protein in PC3 cells after 6 days treatment.

LNCaP cells [10] = test: Imaging of LnCaP cells (cell density); type: cell-based; details: FIG. 18, 12 days' treatment
Text: FIG. 18. Imaging of LnCaP cells after 12 days' treatment with the indicated compounds.

EZH2 [11] = biological target: T1, EZH2; test: Western blot of EZH2 protein in DU-145 cells; details: FIG. 27, 6 days treatment
Text: (Upper right western blot) Western blot analysis of EZH2 protein in DU-145 cells after 6 days treatment.

EZH2 [12] = biological target: T1, EZH2; test: Western blot of EZH2 with esiRNA knockdown of VHL or siRNA control; type: cell-based; details: FIG. 16; siRNA control lane; duplicate
Method: FIG. 16. Cells were treated with indicated compounds with either esiRNA knockdown of VHL or siRNA control (no EZH2 knockdown) and blotted for EZH2 and VHL. […] Experiment was run in duplicate with both replicates shown on the left and right sides.

C4-2B cells [13] = test: WST cell proliferation assay in C4-2B cells; type: cell-based; details: FIG. 22, 6 days
Method: FIG. 22A-22B. WST cell proliferation assay of indicated compounds in C4-2B cells. Cells were treated for 6 days. […] (FIG. 19B) Effects of indicated compounds on EZH2, AR, and FOXA1 by western blot at 1 μM in C4-2B cells.
(§1) Cell proliferation was measured using WST-1 Kit (Clontech) according to manufacturer's protocol.

LNCaP cells [14] = test: WST cell proliferation/viability assay in LNCaP cells; type: cell-based; details: FIG. 19A; LNCaP; 6 days
Method: FIG. 19A-19B. (FIG. 19A) WST cell proliferation assay of indicated compounds in LNCaP cells. […] (FIG. 19B) Effects of indicated compounds on EZH2, AR, and FOXA1 by western blot at 1 μM in LNCaP cells.
as §1

SUZ12 [15] = test: Western blot of SUZ12 in SU-DHL6 cells; type: cell-based; details: FIG. 33, 48 hours
Method: (§2) FIG. 33. […] Cell were treated for 48 hours with the indicated concentrations of compounds.

EED [16] = test: Western blot of EED in SU-DHL4 cells; type: cell-based; details: FIG. 33, 48 hours
Method: as §2

SU-DHL6 cells = test: WST cell viability assay in SU-DHL6 cells; type: cell-based; details: Table 7; WST1 with higher dose on SU-DHL6
Method: as §1

SU-DHL4 cells = test: WST cell viability assay in SU-DHL4 cells; type: cell-based
Method: as §1

EED [17] = test: Western blot of EED in SU-DHL6 cells; type: cell-based; details: FIG. 33, 48 hours
Method: as §2

SUZ12 [18] = test: Western blot of SUZ12 in SU-DHL4 cells; type: cell-based; details: FIG. 33, 48 hours
Method: as §2

T1 sequence (Q15910 whole entry): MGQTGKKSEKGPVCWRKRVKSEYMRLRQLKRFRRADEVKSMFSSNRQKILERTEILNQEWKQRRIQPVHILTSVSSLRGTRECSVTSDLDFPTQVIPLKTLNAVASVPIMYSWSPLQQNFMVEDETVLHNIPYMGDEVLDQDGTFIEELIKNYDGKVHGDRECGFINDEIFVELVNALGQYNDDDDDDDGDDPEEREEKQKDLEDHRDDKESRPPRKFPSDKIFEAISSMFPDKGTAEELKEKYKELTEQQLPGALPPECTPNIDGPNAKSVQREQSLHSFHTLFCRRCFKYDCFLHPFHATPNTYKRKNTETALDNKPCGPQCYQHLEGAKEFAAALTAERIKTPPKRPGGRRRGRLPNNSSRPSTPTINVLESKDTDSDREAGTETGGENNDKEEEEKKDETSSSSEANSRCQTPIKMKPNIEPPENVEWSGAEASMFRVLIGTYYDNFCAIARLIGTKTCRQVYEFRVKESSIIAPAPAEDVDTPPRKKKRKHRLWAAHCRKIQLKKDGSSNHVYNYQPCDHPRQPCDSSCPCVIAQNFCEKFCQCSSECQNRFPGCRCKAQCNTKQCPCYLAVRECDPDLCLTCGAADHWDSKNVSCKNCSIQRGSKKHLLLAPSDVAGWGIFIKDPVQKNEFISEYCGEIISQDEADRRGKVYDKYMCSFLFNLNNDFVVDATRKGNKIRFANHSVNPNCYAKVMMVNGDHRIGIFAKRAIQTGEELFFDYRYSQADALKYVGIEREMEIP
T1 sequence (Q15022 whole entry partner): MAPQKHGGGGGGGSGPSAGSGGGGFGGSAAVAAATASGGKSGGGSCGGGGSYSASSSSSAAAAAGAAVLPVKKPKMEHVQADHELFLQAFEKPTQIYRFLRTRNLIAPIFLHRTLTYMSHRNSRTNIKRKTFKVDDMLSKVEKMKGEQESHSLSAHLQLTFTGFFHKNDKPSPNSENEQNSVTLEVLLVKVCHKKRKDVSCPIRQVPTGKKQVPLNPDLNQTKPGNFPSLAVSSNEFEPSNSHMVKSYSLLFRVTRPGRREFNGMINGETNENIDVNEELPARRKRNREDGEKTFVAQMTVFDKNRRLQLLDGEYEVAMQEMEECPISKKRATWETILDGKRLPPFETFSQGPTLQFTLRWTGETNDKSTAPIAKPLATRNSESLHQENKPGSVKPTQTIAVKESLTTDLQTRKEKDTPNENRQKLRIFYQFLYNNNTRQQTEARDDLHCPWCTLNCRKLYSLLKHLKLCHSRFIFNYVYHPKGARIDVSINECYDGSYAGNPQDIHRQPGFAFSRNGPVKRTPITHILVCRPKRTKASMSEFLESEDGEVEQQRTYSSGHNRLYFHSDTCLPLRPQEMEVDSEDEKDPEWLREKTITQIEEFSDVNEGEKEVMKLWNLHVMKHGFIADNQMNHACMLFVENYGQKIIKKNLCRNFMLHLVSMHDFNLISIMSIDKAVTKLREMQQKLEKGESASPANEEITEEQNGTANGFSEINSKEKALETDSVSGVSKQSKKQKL
T1 sequence (O75530 whole entry partner): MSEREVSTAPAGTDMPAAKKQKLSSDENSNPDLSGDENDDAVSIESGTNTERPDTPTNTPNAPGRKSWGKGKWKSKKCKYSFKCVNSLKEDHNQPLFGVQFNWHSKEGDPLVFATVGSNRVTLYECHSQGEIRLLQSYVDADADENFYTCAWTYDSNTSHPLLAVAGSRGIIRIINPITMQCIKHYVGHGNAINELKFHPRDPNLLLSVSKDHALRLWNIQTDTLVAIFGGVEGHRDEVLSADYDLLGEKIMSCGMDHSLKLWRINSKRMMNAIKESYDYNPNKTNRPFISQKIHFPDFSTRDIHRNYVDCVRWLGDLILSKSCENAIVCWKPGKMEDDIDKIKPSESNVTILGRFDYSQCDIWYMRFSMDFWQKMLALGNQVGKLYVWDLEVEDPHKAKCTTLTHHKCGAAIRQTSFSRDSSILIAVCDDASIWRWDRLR

Row | Structure (SMILES) | half-life [1] | H3K27me3 levels (H3K27me3) | Reduction of PRC2 component SUZ12 (SUZ12 [2]) | Degradation of EZH2 (EZH2 [3]) | Cell proliferation by phase object confluence (C4-2B cells [4]) | Colonies (C4-2B cells [5]) | Cell density by imaging (C4-2B cells [6]) | Colonies (LNCaP cells [7]) | Cell proliferation by phase object confluence (LNCaP cells [8]) | EZH2 protein (western blot) (EZH2 [9]) | Cell density by imaging (LNCaP cells [10]) | EZH2 protein (western blot) (EZH2 [11]) | also measured
1 | CCN(c1cc(-c2ccc(CN3CCN(C(=O)CCCCCCCCCCC(=O)N[C@H](C(=O)N4C[C@H](O)C[C@@H]4C(=O)NCc4ccc(-c5scnc5C)cc4)C(C)(C)C)CC3)cc2)cc(C(=O)NCc2c(C)cc(C)[nH]c2=O)c1C)C1CCOCC1 [Compound 2304, (2R,4R)-1-[(2S)-2-(12-{4-[(3′-{[(4,6-dimethyl-2-oxo-1,2-dihydropyridin-3-yl)methyl]carbamoyl}-5′-[ethyl(oxan-4-yl)amino]-4′-methyl-[1,1′-biphenyl]-4-yl)methyl]piperazin-1-yl}-12-oxododecanamido)-3,3-dimethylbutanoyl]-4-hydroxy-N-{[4-(4-methyl-1,3-thiazol-5-yl)phenyl]methyl}pyrrolidine-2-carboxamide] | 3.5 to 6 h | reduced H3K27me3 levels | reduction of PRC2 component SUZ12 | strong degradation of EZH2 | – | – | – | – | – | – | – | – | EZH2 degradation, comparison within a list of VHL-PROTAC (EZH2 [3]; FIG. 4, 24 hours): most effective; Degrading EZH2 protein (EZH2 [3]; FIG. 5, 24 or 48 hours): effective in degrading EZH2 protein; Degrading EZH2 protein, 2304 versus 2305 (EZH2 [3]; FIG. 6, 24 or 48 hours): more effective than 2305; Restoration of EZH2 by proteasome inhibitor MG132 (EZH2 [3]; FIG. 7, 24 hours, 5 μM or 10 μM MG132): restored EZH2; Restoration of EZH2 by proteasome inhibitor MG132 (EZH2 [3]; FIG. 11, 24 hours, 10 μM MG132): restored EZH2; EZH2 protein levels (western blot) (EZH2 [3]; FIG. 28, 24 hours): significant reduction in EZH2
2 | CCN(c1cc(-c2ccc(CN3CCN(C(=O)CCCCCCCCCC(=O)N[C@H](C(=O)N4C[C@@H](O)C[C@H]4C(=O)NCc4ccc(-c5scnc5C)cc4)C(C)(C)C)CC3)cc2)cc(C(=O)NCc2c(C)cc(C)[nH]c2=O)c1C)C1CCOCC1 [Compound 6286] | – | – | – | no ability to degrade EZH2 | limited ability to inhibit cell proliferation | attenuated anti-proliferative effects | attenuated anti-proliferative effects | attenuated anti-proliferative effects | limited ability to inhibit cell proliferation | no changes | attenuated anti-proliferative effects | no changes | Ability to degrade EZH2 with siRNA control (VHL present) (EZH2 [12]): inactive control
3 | CCN(c1cc(-c2ccc(CN3CCN(CCCCCCCCCCCC(=O)N[C@H](C(=O)N4C[C@H](O)C[C@H]4C(=O)NCc4ccc(-c5scnc5C)cc4)C(C)(C)C)CC3)cc2)cc(C(=O)NCc2c(C)cc(C)[nH]c2=O)c1C)C1CCOCC1 [Compound 6287] | 6.5 h | reduced H3K27me3 levels | reduction of PRC2 component SUZ12 | strong degradation of EZH2 | decrease C4-2B proliferation | significant reduction in the colonies | significant reduction in the cell density | significant reduction in the colonies | greatest ability to decrease LnCaP proliferation | significant reduction in EZH2 | significant reduction in the cell density | significant reduction in EZH2 | Inhibition of proliferation (WST) (C4-2B cells [13]): similarly potent effects on inhibiting the proliferation; Inhibition of proliferation (WST) (LNCaP cells [14]): similarly potent effects on inhibiting the proliferation; Cmax [1]: 487 nM
4 | CCN(c1cc(-c2ccc(CN3CCN(CCCCCCCCCCCC(=O)N[C@H](C(=O)N4C[C@@H](O)C[C@H]4C(=O)NCc4ccc(-c5scnc5C)cc4)C(C)(C)C)CC3)cc2)cc(C(=O)NCc2c(C)cc(C)[nH]c2=O)c1C)C1CCOCC1 [Compound 6300] | – | – | – | no ability to degrade EZH2 | limited ability to inhibit cell proliferation | attenuated anti-proliferative effects | attenuated anti-proliferative effects | attenuated anti-proliferative effects | limited ability to inhibit cell proliferation | no changes | attenuated anti-proliferative effects | no changes | –
5 | CCN(c1cc(-c2ccc(CN3CCOCC3)cc2)cc(C(=O)NCc2c(C)cc(C)[nH]c2=O)c1C)C1CCOCC1 [EPZ-6438, reference compound] | – | – | – | – | – | reduction in colonies versus DMSO negative control | – | reduction in colonies versus DMSO negative control | – | – | – | – | Degradation of SUZ12 (SUZ12 [15]): little or no effect; Degradation of EED (EED [16]): little or no effect; HillSlope (best-fit value) (SU-DHL6 cells): −0.03015; logIC50 (best-fit value) (SU-DHL6 cells): Unstable; HillSlope (best-fit value) (SU-DHL4 cells; Table 6, WST1 with higher dose on SU-DHL4): 0.005835; HillSlope (best-fit value) (SU-DHL4 cells; Table 8, WST1 within 1 μM on SU-DHL4): −0.1692; HillSlope (best-fit value) (SU-DHL4 cells; Table 9, WST1 within 1 μM on SU-DHL4 (as titled)): −0.4432; Degradation of EED (EED [17]): little or no effect; Degradation of SUZ12 (SUZ12 [18]): little or no effect
